What was measured:
[1] = test system: recombinant strain GS115-9K-P1-2; assay: β-xylosidase activity of the recombinant yeast strain on PNP-Xyl; type: cell-based, Pichia pastoris
Method: FIG. 4: Comparison of the recombinant strains GS115-9K-P1-2 and GS115-9K (control) on β-xylosidase activity.
BMGY medium (contains per liter: 10.00 g yeast extract, 20.00 g peptone, 100 mM potassium phosphate buffer, pH 6.0, 10 ml glycerol) and BMMY medium (10 ml glycerol in BMGY medium was replaced with 10 ml methanol as the carbon source) were used as the seed culture and fermentation media respectively for the recombinant yeast. The resistant strain obtained by screening was inoculated into 10 ml seed culture medium and incubated at 30° C., 220 rpm for 18 h. The cultures were washed 2 times by centrifugation and the cell pellet was transferred into 50 ml fermentation medium. Cells were cultured at 30° C., 220 rpm, and 1% methanol was added every 24 h for induction of expression of the recombinant protein. Meanwhile the enzyme activity of the recombinant strain was detected regularly. […]

LXYL-P1 (or P1) protein = assay: Specificity test on different glycoside (chromogenic) substrates hydrolysis by purified LXYL-P1; type: biochemical, Lentinula edodes M95.33; conditions: 20 min; for hydrolysis of chromogenic substrate by P1 protein (in words): 50° C., pH 5.0; for Relative activity (% control): control = PNP-Xyl; for Relative activity (% control) / OD405 value: 5 mM substrate, pH 5.0, 50° C., purified P1; for OD405 value: release of p-nitrophenol at 405 nm
Method: In addition to the β-xylosidase activity, especially the activity of hydrolyzing 7-xylosyltaxanes, the specificity of the LXYL-P1 (or P1) on other glycoside substrates was also tested by employing four chromogenic substrates: p-nitrophenyl-β-D-glucopyranoside (PNP-Glc), p-nitrophenyl-β-D-galactopyranoside (PNP-Gal), p-nitrophenyl-α-L-arabinopyrano side (PNP-Ara), and p-Nitrophenyl-β-D-xylopyranoside (PNP-Xyl, serving as a control). Each of the chromogenic substrates was prepared in 50 mM acetate buffer to obtain 5 mM solution (pH 5.0).
To the purified P1 protein diluent (25 μl) obtained in example 1, 100 μl of each chromogenic substrate was added. The reaction was performed at 50° C. for 20 min and stopped with 2 ml saturated solution of sodium borate. Release of p-nitrophenol (absorbance value) was measured at 405 nm.

[2] = test system: recombinant yeast GS115-3.5K-P1-2; assay: Hydrolysis of 7-xylosyltaxane mixtures by the recombinant yeast; type: cell-based, Pichia pastoris; conditions: 7-xylosyltaxane mixtures about 8 mg/ml, 24 h, 30-55° C., HPLC
From the text: The recombinant yeast GS115-3.5K-P1-2 (transformant of the recombinant expression plasmid pPIC3.5K-P1-2) obtained in Example 4 was applied in the following bioconversion reaction, wherein the substrates to be converted were 7-xylosyltaxane mixtures, the main components of which included 62.12% of 7-xylosyl-10-deacetyltaxol, 12.75% of 7-xylosyl-10-deacetylcephalomannine, 17.04% of 7-xylosyl-10-deacetyltaxol C, and 8.09% of other components.
The method for culturing the recombinant strain was the same as in Example 5. 16 ml 7-xylosyltaxane mixtures (at a concentration of 100 mg/ml) were added to 200 ml recombinant strain reaction solution with the final concentration of the 7-xylosyltaxane mixtures being about 8 mg/ml (supersaturated). The recombinant yeast introduced with the null vector was taken as the negative control. The solution was mixed by magnetic stirring for 24 h at 30˜55° C. […] The yields of the three main products: 10-deacetyltaxol (DT): 3.27 mg/ml; 10-deacetylcephalomannine (DC): 0.74 mg/ml; and 10-deacetyltaxol C (DTC): 0.92 mg/ml.

[3] = test system: Moraxella sp. (ATCC55475); conditions: XDT 0.25 mg/ml, wet cells 91.5 mg/ml, 21 h, 28° C.; cited from earlier work
LXYL-P2 (or P2) = assay: XDT conversion by Phenyl Sepharose peak LXYL-P2, thin layer chromatography; type: biochemical, Lentinula edodes M95.33; conditions: TLC, FIG. 1B
From the text: (§1) FIG. 1: Phenyl Sepharose hydrophobic column chromatography of the β-xylosidase-β-glucosidase from the protein extract of the fungus M95.33 (A), and thin layer chromatography (TLC) of XDT conversion (B). • A: P1. active elution peak of LXYL-P1; P2. active elution peak of LXYL-P2. […] XDT (control); 2. DT (control); 3. XDT bioconversion by LXYL-P1; 4. XDT bioconversion by LXYL-P2.
(§2) The fraction eluted in the above step was applied to a Phenyl Sepharose hydrophobic column (1.6 cm×20 cm) equilibrated with 50 mM Tris-HCl buffer (pH 8.0) containing 1 M […]. Elution was performed with Tris-HCl buffer (50 mM, pH8.0) having a linear gradient of 1.0˜0 M (NH4)2SO4 (at a flow rate of 2 ml/min). Fractions having enzymatic activity were collected and dialyzed with Tris-HCl buffer (50 mM, pH8.0).
(§3) Within penal B, 1 was XDT control; 2 was DT control; 3 was XDT conversion by P1; and 4 was XDT conversion by P2.

[4] = test system: recombinant yeast GS115-9K-P1-2; assay: Hydrolysis of 7-xylosyl-10-deacetyltaxol (XDT) by the recombinant yeast; type: cell-based, Pichia pastoris; conditions: XDT 0.625 mg/ml, 12 h, 30-55° C.
Method: The recombinant yeast GS115-9K-P1-2 (transformant of the recombinant expression plasmid pPIC-9K-P1-2) obtained in example 4 was cultured and induced for 5 days in the manner of Example 4. Cells were centrifuged, harvested and washed, and then was, directly or after lyophilization, suspended with 50 mM acetate buffer or phosphate buffer (65 mg wet cells/ml or 16 mg dry cells/ml, pH 3.5˜7.5), and used as the hydrolytic reaction solution. To 20 ml of the cell reaction solution, 0.5 ml solution of 7-xylosyl-10-deacetyltaxol (XDT) was added with the final concentration of XDT being 0.625 mg/ml. The resultant was incubated in a water shaking bath for 12 h at 30˜55° C.
Extraction was performed with ethyl acetate after the reaction was completed.

LXYL-P1 (or P1) = assay: XDT conversion by Phenyl Sepharose peak LXYL-P1, thin layer chromatography; type: biochemical, Lentinula edodes M95.33; conditions: TLC, FIG. 1B
From the text: as §1, §2, §3

[5] = test system: Leifsonia shinshuensis DICP 16; conditions: 1 mg XDT in 2 ml cell suspension, 21 h, 30° C.; cited from earlier work
[6] = test system: recombinant yeast GS115-3.5K-P1-2; assay: Hydrolysis of XDB by the recombinant yeast; type: cell-based, Pichia pastoris; conditions: 8 mg XDB/ml, 16 mg dry cells/ml, 24 h, 30-55° C., HPLC
Method: The strain was the same as that in Example 6 and the substrate was 7-xylosyl-10-deacetylbaccatin III (XDB). 1.5 ml cell reaction solution contained 16 mg dry cells per milliliter and 8 mg XDB per milliliter. The mixture was incubated in a water shaking bath for 24 h at 30˜55° C.

SMILES | Relative activity (% control) (LXYL-P1 (or P1) protein) | OD405 value (LXYL-P1 (or P1) protein) | conversion ratio [2] | also measured
O=[N+]([O-])c1ccc(O[C@@H]2OC[C@@H](O)[C@H](O)[C@H]2O)cc1 [PNP-Xyl, p-nitrophenyl-β-D-xylopyranoside] | 100 % control | 0.745 | – | ability of recombinant strain to hydrolyze the substrate ([1]; cell suspension, 5 mM PNP-Xyl, 20 min, 30-55° C.): has the ability to hydrolyze; enzymatic activity in supernatant of fermentation broth of recombinant strain ([1]; supernatant of the fermentation broth): no obvious enzymatic activity was detected; hydrolysis of chromogenic substrate by P1 protein (in words) (LXYL-P1 (or P1) protein): could hydrolyze
CC=C(C)C(=O)NC(c1ccccc1)C(O)C(=O)OC1CC2(O)C(OC(=O)c3ccccc3)C3C4(OC(C)=O)COC4CC(OC4OCC(O)C(O)C4O)C3(C)C(=O)C(O)C(=C1C)C2(C)C (stereo not shown) [XDC, 7-Xylosyl-10-deacetylcephalomannine] | – | – | 93.60% | –
O=[N+]([O-])c1ccc(O[C@@H]2O[C@H](CO)[C@H](O)[C@H](O)[C@H]2O)cc1 [PNP-Gal, p-nitrophenyl-β-D-galactopyranoside] | 0 % control | 0.000 | – | –
CC(=O)O[C@@]12CO[C@@H]1C[C@H](O[C@@H]1OC[C@@H](O)[C@H](O)[C@H]1O)[C@@]1(C)C(=O)[C@H](O)C3=C(C)[C@@H](OC(=O)[C@H](O)[C@@H](NC(=O)c4ccccc4)c4ccccc4)C[C@@](O)([C@@H](OC(=O)c4ccccc4)[C@H]21)C3(C)C [XDT, 7-Xylosyl-10-deacetyltaxol] | – | – | 92.45% | XDT remaining after reaction (HPLC) [3]: No XDT was found to be remaining; hydrolysis of XDT into DT by P2 (LXYL-P2 (or P2)): could hydrolyze; conversion ratio ([4]; HPLC): 98.80%; substrate transformation by TLC ([4]; TLC): completely transformed; hydrolysis of XDT into DT by P1 (LXYL-P1 (or P1)): could hydrolyze; XDT remaining after reaction (HPLC) [5]: No XDT was found to be remaining
CC(=O)O[C@@]12CO[C@@H]1C[C@H](O[C@@H]1OC[C@@H](O)[C@H](O)[C@H]1O)[C@@]1(C)C(=O)[C@H](O)C3=C(C)[C@@H](O)C[C@@](O)([C@@H](OC(=O)c4ccccc4)[C@H]21)C3(C)C [XDB, 7-Xylosyl-10-deacetylbaccatin III] | – | – | – | conversion ratio [6]: 86.54%
O=[N+]([O-])c1ccc(O[C@@H]2O[C@H](CO)[C@@H](O)[C@H](O)[C@H]2O)cc1 [PNP-Glc, p-nitrophenyl-β-D-glucopyranoside] | 217 % control | 1.615 | – | hydrolysis of chromogenic substrate by P1 protein (in words) (LXYL-P1 (or P1) protein): could hydrolyze
O=[N+]([O-])c1ccc(O[C@@H]2OC[C@H](O)[C@H](O)[C@H]2O)cc1 [PNP-Ara, p-nitrophenyl-α-L-arabinopyranoside] | 0 % control | 0.000 | – | –
CCCCCC(=O)N[C@@H](c1ccccc1)[C@@H](O)C(=O)O[C@H]1C[C@@]2(O)[C@@H](OC(=O)c3ccccc3)[C@@H]3[C@]4(OC(C)=O)CO[C@@H]4C[C@H](O[C@@H]4OC[C@@H](O)[C@H](O)[C@H]4O)[C@@]3(C)C(=O)[C@H](O)C(=C1C)C2(C)C [XDTC, 7-Xylosyl-10-deacetyltaxol C] | – | – | 92.00% | –
